Results as given in patent publication US8217043B2, “Compounds and methods for their use” (Fibrogen, Inc., priority 2008, dated 2012).

Target: T1, HIF-PH2 (EGLN1) (Homo sapiens, UniProt Q9GZT9)
T1 construct: made in house; host or cells: insect Hi5 cells
Assay: HIF-PH assay (14CO2 capture, peptide-dependent turnover)
Format: biochemical
Conditions: for inhibition at 67 µM: Concentration 67 μM; for inhibition at 50 µM: Concentration 50 μM; for inhibition at 200 µM: Concentration 200 μM
Text: Ketoglutaric acid α-[1-^14C]-sodium salt, alpha-ketoglutaric acid sodium salt, and HPLC purified peptide may be obtained from commercial sources, e.g., Perkin-Elmer (Wellesley Mass.), Sigma-Aldrich, and SynPep Corp. (Dublin Calif.), respectively. Peptides for use in the assay may be fragments of HIFα as described above or as disclosed in International Publication WO 2005/118836, incorporated by reference herein. HIF-PH, e.g., HIF-PH2 (EGLN1), can be expressed in, e.g., insect Hi5 cells, and partially purified, e.g., through a SP ion exchange chromatography column. Enzyme activity is determined by capturing ^14CO2 using an assay described by Kivirikko and Myllyla (1982, Methods Enzymol. 82:245-304). Assay reactions contain 50 mM HEPES (pH 7.4), 100 μM α-ketoglutaric acid sodium salt, 0.30 μCi/mL ketoglutaric acid α-[1-^14C]-sodium salt, 40 μM FeSO4, 1 mM ascorbate, 1541.8 units/mL Catalase, with or without 50 μM peptide substrate and various concentrations of compound of the invention. Reactions are initiated by addition of HIF-PH enzyme.
The peptide-dependent percent turnover is calculated by subtracting percent turnover in the absence of peptide from percent turnover in the presence of substrate peptide. Percent inhibition and IC50 are calculated using peptide-dependent percent turnover at given inhibitor concentrations. Calculation of IC50 values for each inhibitor is conducted using GraFit software (Erithacus Software Ltd., Surrey UK).
Representative compounds of the invention were analyzed using the HIF-PH assay described above. Table 1 presents enzyme inhibition data for exemplary compounds against HIF-PH2, a representative HIF prolyl hydroxylase. By inhibiting HIF prolyl hydroxylase, compounds of the invention stabilize HIFα, which then combines with HIFβ to form an active transcription factor that increases expression of various genes involved in numerous beneficial cellular processes.

T1 sequence (Q9GZT9 whole entry, species assumed): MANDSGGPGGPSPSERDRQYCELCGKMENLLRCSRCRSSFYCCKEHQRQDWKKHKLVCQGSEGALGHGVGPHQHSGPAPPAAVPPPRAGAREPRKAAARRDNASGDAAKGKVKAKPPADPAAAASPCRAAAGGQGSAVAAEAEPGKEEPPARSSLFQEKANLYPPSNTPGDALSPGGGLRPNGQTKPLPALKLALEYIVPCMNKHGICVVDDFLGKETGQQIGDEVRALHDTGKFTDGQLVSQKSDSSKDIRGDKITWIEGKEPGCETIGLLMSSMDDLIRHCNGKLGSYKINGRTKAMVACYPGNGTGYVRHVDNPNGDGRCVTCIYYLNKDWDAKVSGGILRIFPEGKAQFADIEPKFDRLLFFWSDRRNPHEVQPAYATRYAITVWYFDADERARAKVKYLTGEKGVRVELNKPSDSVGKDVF

SMILES	inhibition at 67 µM	further results
C[C@@H](NC(=O)c1c(O)c2cc(Cl)cn2n(Cc2ccc(-c3ccccc3)cc2)c1=O)C(=O)O [Example 36, 2-(R)-{[6-Chloro-1-(4-phenyl-benzyl)-4-hydroxy-2-oxo-1,2-dihydro-pyrrolo[1,2-b]pyridazine-3-carbonyl]-amino}-propionic acid]	98%	
CCCCCCn1c(=O)c(C(=O)NCC(=O)O)c(O)c2cccn21 [Example 20, [(1-Hexyl-4-hydroxy-2-oxo-1,2-dihydro-pyrrolo[1,2-b]pyridazine-3-carbonyl)-amino]-acetic acid]		inhibition at 50 µM: 97%
O=C(O)CNC(=O)c1c(O)c2cc3ccccc3n2n(Cc2ccc(F)cc2)c1=O [Example 18, {[4-(4-Fluoro-benzyl)-1-hydroxy-3-oxo-3,4-dihydro-4,4a-diaza-fluorene-2-carbonyl]-amino}-acetic acid]		inhibition at 50 µM: 96%
O=C(O)CNC(=O)c1c(O)c2cc(Cl)cn2n(Cc2ccc(Cl)cc2)c1=O [Example 28, {[6-Chloro-1-(4-chloro-benzyl)-4-hydroxy-2-oxo-1,2-dihydro-pyrrolo[1,2-b]pyridazine-3-carbonyl]-amino}-acetic acid]	100%	
C[C@H](NC(=O)c1c(O)c2cc(Cl)cn2n(Cc2ccc(C(F)(F)F)cc2)c1=O)C(=O)O [Example 23, 2-(S)-{[6-Chloro-4-hydroxy-2-oxo-1-(4-trifluoromethyl-benzyl)-1,2-dihydro-pyrrolo[1,2-b]pyridazine-3-carbonyl]-amino}-propionic acid]		inhibition at 50 µM: 98%
O=C(O)CNC(=O)c1c(O)c2cccn2n(Cc2ccccc2C(F)(F)F)c1=O [Example 16, {[1-(2-Trifluoromethyl-benzyl)-4-hydroxy-2-oxo-1,2-dihydro-pyrrolo[1,2-b]pyridazine-3-carbonyl]-amino}-acetic acid]		inhibition at 125 µM (Concentration 125 μM): 98%
CC[C@H](NC(=O)c1c(O)c2cc(Cl)cn2n(Cc2ccc(OC)cc2)c1=O)C(=O)O [Example 33, 2-(S)-{[6-Chloro-1-(4-methoxy-benzyl)-4-hydroxy-2-oxo-1,2-dihydro-pyrrolo[1,2-b]pyridazine-3-carbonyl]-amino}-butyric acid]	88%	
O=C(O)CNC(=O)c1c(O)c2cccn2n(Cc2ccc3ccccc3c2)c1=O [Example 9, [(4-Hydroxy-1-naphthalen-2-ylmethyl-2-oxo-1,2-dihydro-pyrrolo[1,2-b]pyridazine-3-carbonyl)-amino]-acetic acid]		inhibition at 200 µM: 100%
C[C@H](NC(=O)c1c(O)c2cc(Cl)cn2n(Cc2ccc(F)cc2)c1=O)C(=O)O [Example 27, 2-(S)-{[6-Chloro-1-(4-fluoro-benzyl)-4-hydroxy-2-oxo-1,2-dihydro-pyrrolo[1,2-b]pyridazine-3-carbonyl]-amino}-propionic acid]	95%	
CC[C@H](NC(=O)c1c(O)c2cc(Cl)cn2n(Cc2ccc(F)cc2)c1=O)C(=O)O [Example 34, 2-(S)-{[6-Chloro-1-(4-fluoro-benzyl)-4-hydroxy-2-oxo-1,2-dihydro-pyrrolo[1,2-b]pyridazine-3-carbonyl]-amino}-butyric acid]	86%	
COc1ccc(Cn2c(=O)c(C(=O)NCC(=O)O)c(O)c3cccn32)cc1 [Example 12, {[1-(4-Methoxy-benzyl)-4-hydroxy-2-oxo-1,2-dihydro-pyrrolo[1,2-b]pyridazine-3-carbonyl]-amino}-acetic acid]		inhibition at 200 µM: 100%
C[C@H](NC(=O)c1c(O)c2cc(Cl)cn2n(Cc2cccnc2)c1=O)C(=O)O [Example 39, 2-(S)-[(6-Chloro-4-hydroxy-2-oxo-1-pyridin-3-ylmethyl-1,2-dihydro-pyrrolo[1,2-b]pyridazine-3-carbonyl)-amino]-propionic acid]	97%	

More lines, main results first:

inhibition at 67 µM	SMILES	further results
100%	C[C@H](NC(=O)c1c(O)c2cc(Cl)cn2n(Cc2ccc(-c3ccccc3)cc2)c1=O)C(=O)O [Example 35, 2-(S)-[(1-Biphenyl-4-ylmethyl-6-chloro-4-hydroxy-2-oxo-1,2-dihydro-pyrrolo[1,2-b]pyridazine-3-carbonyl)-amino]-propionic acid]	
99%	O=C(O)CNC(=O)c1c(O)c2cc(Cl)cn2n(Cc2cccnc2)c1=O [Example 38, [(6-Chloro-4-hydroxy-2-oxo-1-pyridin-3-ylmethyl-1,2-dihydro-pyrrolo[1,2-b]pyridazine-3-carbonyl)-amino]-acetic acid]	
94%	CC[C@H](NC(=O)c1c(O)c2cc(Cl)cn2n(Cc2ccc(Cl)cc2)c1=O)C(=O)O [Example 30, 2-(S)-{[6-Chloro-1-(4-chloro-benzyl)-4-hydroxy-2-oxo-1,2-dihydro-pyrrolo[1,2-b]pyridazine-3-carbonyl]-amino}-butyric acid]	
